This is an account of results in US20240300932A1, “N-PHENYLIMINE DERIVATIVE AND PREPARATION METHOD AND USE THEREOF” (Guizhou University, priority 2023, published 2024).

The term melting point denotes the temperature, or range, at which the solid turns liquid.

The subject of data set [1] is Abutilon theophrasti. Put plainly: Post-emergence herbicidal activity test (stem and leaf spray, pot culture). In kind it is in vivo. The following applies: 3 weeks after spraying. The procedure, abridged:
(§1)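 Graded 0–5 on fresh-weight growth control rate 3 weeks after a single spray-tower application at 10, 5 or 2.5 g/mu. Compounds in acetone with Tween 80 and methyl oleate synergist (1.5 liters/ha), applied to greenhouse weeds at 2- to 3-leaf stage.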

For data set [2], the system named is Amaranthus retroflexus. The data set is described as above. In kind it is in vivo. As to conditions: 3 weeks after spraying. The procedure, abridged:
as §1

Data set [3] deals with Echinochloa crusgalli. Described as above. In kind it is in vivo. As to conditions: 3 weeks after spraying. The procedure, abridged:
as §1

For data set [4], the system named is Portulaca oleracea. The data set is described as above. As to conditions: 3 weeks after spraying. The class given is in vivo. The procedure, abridged: as §1
The subject of data set [5] is Setaria viridis. The description is as above. In kind it is in vivo. The following applies: 3 weeks after spraying. The procedure, abridged:
as §1

Data set [6] deals with Trifoliumre pensL. Put plainly: Post-emergence herbicidal activity test (stem and leaf spray, pot culture). The class given is in vivo. The following applies: 3 weeks after spraying. The procedure, abridged:
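Pot-grown weeds in loam (pH 7), greenhouse at 20–30 °C, sprayed once post-emergence at the 2–3-leaf stage. Compound in acetone with Tween 80 plus methyl oleate oil (1.5 L/ha), applied at 10, 5 and 2.5 g/mu by spray tower. Effect scored 3 weeks after spraying, averaged over three repeats.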

For `CC(=O)Nc1cc(N2C(=O)C3=C(CCCC3)C2=O)c(F)cc1Cl` [Compound D1, N-(2-chloro-5-(1,3-dioxo-1,3,4,5,6,7-hexahydro-2H-isoindole-2-yl)-4-fluorophenyl)acetamide], the melting point was 155 to 157 °C. The “Post-emergence herbicidal activity, A. theophrasti (grade)” value in data set [1] (dosage 10 g/mu) is 5 (Grade 5: the growth control rate is greater than or equal to 85%). The “Post-emergence herbicidal activity, A. retroflexus (grade)” value in data set [2] (dosage 10 g/mu) is listed as 5 (Grade 5: the growth control rate is greater than or equal to 85%). For the same compound, the “Post-emergence herbicidal activity, E. crusgalli (grade)” value in data set [3] (dosage 10 g/mu) is 3 (Grade 3: the growth control rate is greater than or equal to 40% and less than 60%). Moreover, the “Post-emergence herbicidal activity, P. oleracea (grade)” value in data set [4] (dosage 10 g/mu) was 5 (Grade 5: the growth control rate is greater than or equal to 85%). Also, the “Post-emergence herbicidal activity, S. viridis (grade)” value in data set [5] (dosage 10 g/mu) is 4 (Grade 4: the growth control rate is greater than or equal to 60% and less than 85%). Also, the “Post-emergence herbicidal activity, Trifoliumre pensL. (grade)” value in data set [6] (dosage 10 g/mu) is reported as 5 (Grade 5: the growth control rate is greater than or equal to 85%).

Regarding `O=C(COc1cc(N2C(=O)C3=C(CCCC3)C2=O)c(F)cc1Cl)c1ccccc1F` [Compound C4, 2-(4-chloro-2-fluoro-5-(2-oxo-2-(2-fluorophenyl)ethoxy)phenyl)-4,5,6,7-tetrahydro-1H-isoindole-1,3(2H)-dione], the melting point lay within 141 to 143 °C. Besides, in data set [1] (dosage 2.5 g/mu), the “Post-emergence herbicidal activity, A. theophrasti (grade)” value is 5 (Grade 5: the growth control rate is greater than or equal to 85%). In addition, the “Post-emergence herbicidal activity, A. theophrasti (grade)” value in data set [1] (dosage 5 g/mu) is 5 (Grade 5: the growth control rate is greater than or equal to 85%). The “Post-emergence herbicidal activity, A. theophrasti (grade)” value in data set [1] (dosage 10 g/mu) is 5 (Grade 5: the growth control rate is greater than or equal to 85%). Also, the “Post-emergence herbicidal activity, A. retroflexus (grade)” value in data set [2] (dosage 2.5 g/mu) is on record as 5 (Grade 5: the growth control rate is greater than or equal to 85%). Further, the “Post-emergence herbicidal activity, A. retroflexus (grade)” value in data set [2] (dosage 5 g/mu) is given as 5 (Grade 5: the growth control rate is greater than or equal to 85%). The “Post-emergence herbicidal activity, A. retroflexus (grade)” value in data set [2] (dosage 10 g/mu) was 5 (Grade 5: the growth control rate is greater than or equal to 85%). The “Post-emergence herbicidal activity, E. crusgalli (grade)” value in data set [3] (dosage 2.5 g/mu) was 1 (Grade 1: the growth control rate is greater than or equal to 5% and less than 20%). Further, in data set [3] (dosage 5 g/mu), the “Post-emergence herbicidal activity, E. crusgalli (grade)” value was 2 (Grade 2: the growth control rate is greater than or equal to 20% and less than 40%). Further, the “Post-emergence herbicidal activity, E. crusgalli (grade)” value in data set [3] (dosage 10 g/mu) is 3 (Grade 3: the growth control rate is greater than or equal to 40% and less than 60%). In data set [4] (dosage 2.5 g/mu), the “Post-emergence herbicidal activity, P. oleracea (grade)” value is reported as 5 (Grade 5: the growth control rate is greater than or equal to 85%). Also, the “Post-emergence herbicidal activity, P. oleracea (grade)” value in data set [4] (dosage 5 g/mu) is reported as 5 (Grade 5: the growth control rate is greater than or equal to 85%). The “Post-emergence herbicidal activity, P. oleracea (grade)” value in data set [4] (dosage 10 g/mu) is given as 5 (Grade 5: the growth control rate is greater than or equal to 85%). For the same compound, the “Post-emergence herbicidal activity, S. viridis (grade)” value in data set [5] (dosage 2.5 g/mu) was 2 (Grade 2: the growth control rate is greater than or equal to 20% and less than 40%). For the same compound, the “Post-emergence herbicidal activity, S. viridis (grade)” value in data set [5] (dosage 5 g/mu) was 3 (Grade 3: the growth control rate is greater than or equal to 40% and less than 60%). The “Post-emergence herbicidal activity, S. viridis (grade)” value in data set [5] (dosage 10 g/mu) was 4 (Grade 4: the growth control rate is greater than or equal to 60% and less than 85%). For the same compound, in data set [6] (dosage 2.5 g/mu), the “Post-emergence herbicidal activity, Trifoliumre pensL. (grade)” value is listed as 5 (Grade 5: the growth control rate is greater than or equal to 85%). In addition, the “Post-emergence herbicidal activity, Trifoliumre pensL. (grade)” value in data set [6] (dosage 5 g/mu) is reported as 5 (Grade 5: the growth control rate is greater than or equal to 85%). In data set [6] (dosage 10 g/mu), the “Post-emergence herbicidal activity, Trifoliumre pensL. (grade)” value is 5 (Grade 5: the growth control rate is greater than or equal to 85%).

Compound `C/C=C/C(=O)Nc1cc(N2C(=O)C3=C(CCCC3)C2=O)c(F)cc1Cl` [Compound D5, (E)-N-(2-chloro-5-(1,3-dioxo-1,3,4,5,6,7-hexahydro-2H-isoindole-2-yl)-4-fluorophenyl)but-2-enamide] came in with a melting point of 133 to 138 °C. In data set [1] (dosage 10 g/mu), the “Post-emergence herbicidal activity, A. theophrasti (grade)” value is 5 (Grade 5: the growth control rate is greater than or equal to 85%). Moreover, the “Post-emergence herbicidal activity, A. retroflexus (grade)” value in data set [2] (dosage 10 g/mu) is listed as 5 (Grade 5: the growth control rate is greater than or equal to 85%). The “Post-emergence herbicidal activity, E. crusgalli (grade)” value in data set [3] (dosage 10 g/mu) is 3 (Grade 3: the growth control rate is greater than or equal to 40% and less than 60%). Further, in data set [4] (dosage 10 g/mu), the “Post-emergence herbicidal activity, P. oleracea (grade)” value is listed as 5 (Grade 5: the growth control rate is greater than or equal to 85%). In addition, the “Post-emergence herbicidal activity, S. viridis (grade)” value in data set [5] (dosage 10 g/mu) was 4 (Grade 4: the growth control rate is greater than or equal to 60% and less than 85%). In addition, in data set [6] (dosage 10 g/mu), the “Post-emergence herbicidal activity, Trifoliumre pensL. (grade)” value is listed as 5 (Grade 5: the growth control rate is greater than or equal to 85%).

`Cc1ccccc1-c1noc(COc2cc(N3C(=O)C4=C(CCCC4)C3=O)c(F)cc2Cl)n1` [Compound A2, 2-(4-chloro-2-fluoro-5-((3-(2-tolyl)-1,2,4-oxadiazole-5-yl)methoxy)phenyl)-4,5,6,7-tetrahydro-1H-isoindole-1,3(2H)-dione] had a melting point of 161 to 167 °C. Further, in data set [1] (dosage 2.5 g/mu), the “Post-emergence herbicidal activity, A. theophrasti (grade)” value was 5 (Grade 5: the growth control rate is greater than or equal to 85%). In addition, the “Post-emergence herbicidal activity, A. theophrasti (grade)” value in data set [1] (dosage 5 g/mu) is recorded as 5 (Grade 5: the growth control rate is greater than or equal to 85%). Besides, in data set [1] (dosage 10 g/mu), the “Post-emergence herbicidal activity, A. theophrasti (grade)” value is on record as 5 (Grade 5: the growth control rate is greater than or equal to 85%). The “Post-emergence herbicidal activity, A. retroflexus (grade)” value in data set [2] (dosage 2.5 g/mu) is recorded as 5 (Grade 5: the growth control rate is greater than or equal to 85%). For the same compound, in data set [2] (dosage 5 g/mu), the “Post-emergence herbicidal activity, A. retroflexus (grade)” value is reported as 5 (Grade 5: the growth control rate is greater than or equal to 85%). Moreover, the “Post-emergence herbicidal activity, A. retroflexus (grade)” value in data set [2] (dosage 10 g/mu) is 5 (Grade 5: the growth control rate is greater than or equal to 85%). Besides, the “Post-emergence herbicidal activity, E. crusgalli (grade)” value in data set [3] (dosage 2.5 g/mu) was 1 (Grade 1: the growth control rate is greater than or equal to 5% and less than 20%). For the same compound, the “Post-emergence herbicidal activity, E. crusgalli (grade)” value in data set [3] (dosage 5 g/mu) was 2 (Grade 2: the growth control rate is greater than or equal to 20% and less than 40%). The “Post-emergence herbicidal activity, E. crusgalli (grade)” value in data set [3] (dosage 10 g/mu) was 3 (Grade 3: the growth control rate is greater than or equal to 40% and less than 60%). The “Post-emergence herbicidal activity, P. oleracea (grade)” value in data set [4] (dosage 2.5 g/mu) is 4 (Grade 4: the growth control rate is greater than or equal to 60% and less than 85%). Besides, in data set [4] (dosage 5 g/mu), the “Post-emergence herbicidal activity, P. oleracea (grade)” value was 5 (Grade 5: the growth control rate is greater than or equal to 85%). Also, the “Post-emergence herbicidal activity, P. oleracea (grade)” value in data set [4] (dosage 10 g/mu) is recorded as 5 (Grade 5: the growth control rate is greater than or equal to 85%). Further, the “Post-emergence herbicidal activity, S. viridis (grade)” value in data set [5] (dosage 2.5 g/mu) is 2 (Grade 2: the growth control rate is greater than or equal to 20% and less than 40%). In addition, in data set [5] (dosage 5 g/mu), the “Post-emergence herbicidal activity, S. viridis (grade)” value is 3 (Grade 3: the growth control rate is greater than or equal to 40% and less than 60%). The “Post-emergence herbicidal activity, S. viridis (grade)” value in data set [5] (dosage 10 g/mu) is 4 (Grade 4: the growth control rate is greater than or equal to 60% and less than 85%). The “Post-emergence herbicidal activity, Trifoliumre pensL. (grade)” value in data set [6] (dosage 2.5 g/mu) was 4 (Grade 4: the growth control rate is greater than or equal to 60% and less than 85%). In addition, the “Post-emergence herbicidal activity, Trifoliumre pensL. (grade)” value in data set [6] (dosage 5 g/mu) is reported as 5 (Grade 5: the growth control rate is greater than or equal to 85%). Moreover, the “Post-emergence herbicidal activity, Trifoliumre pensL. (grade)” value in data set [6] (dosage 10 g/mu) is on record as 5 (Grade 5: the growth control rate is greater than or equal to 85%).
